Experimental data published in PMC12114947, “Evaluation of Violacein Metabolic Stability and Metabolite Identification in Human, Mouse, and Rat Liver Microsomes” (Pharmaceutics, 2025).
≈ marks a conversion by molar mass, not a printed value.

How the values were obtained:
Caco-2 cells = test system: Caco-2 cells; design: method as in PMID 16889929; details: cited from earlier work
[1] = In vitro metabolic stability in rat liver microsomes; format: in vitro ADME
Experimental: (§1) After removal, a pool consisting of livers from five naïve male rats and five C57BL male mice was immediately placed in a 50 mM Tris-HCl buffer, pH 7.4, containing 150 mM KCl. The livers were diced with scissors and washed three times with buffer, followed by homogenization with 20 mL of buffer in a Potter-type homogenizer (three cycles, with each cycle comprising three grindings of 1 min each at 1000 rpm). The homogenate was centrifuged at 10,000× g for 15 min at 4 °C. The resulting supernatant was then ultracentrifuged at 100,000× g for 60 min at 4 °C to obtain the microsomal pellet, which was resuspended in 50 mM HEPES-HCl buffer, pH 7.4, containing 20% glycerol and 1 mM EDTA.
(§2) The metabolic stability of volacein was assessed as described by Godoi et al. and Antunes et al.. Aliquots (4 µL) of 100 µM violacein working solution and 96 µL of the NADPH-regenerating system, containing 1.1 mM NADP^+, 10 mM glucose-6-phosphate, 1 U/mL glucose-6-phosphate dehydrogenase, 5 mM sodium citrate, and 66 mM magnesium chloride in 100 mM phosphate buffer, pH 7.4, were transferred to propylene tubes and pre-incubated for 5 min in an MTC 100 thermo shaker incubator (Miulab, Zhejiang, China) at 300 rpm and 37 °C. Subsequently, the metabolic reactions were initiated by adding 100 μL of microsomal proteins from HLMs, RLMs, and MLMs at a concentration of 2 mg/mL to the pre-incubated shaking tubes, resulting in final concentrations of 2 μM for violacein and 1 mg/mL for microsomal proteins. In this experiment, seven incubation times were planned for each species (0, 3, 5, 15, 30, 60, and 120 min), in triplicate. At each time interval, the reactions were stopped by adding 400 μL of ice-cold acetonitrile spiked with 10 µM omeprazole (IS) to each tube. Finally, the samples were vortexed for 5 min in a BenchMixer^TM XL (Benchmark, NJ, USA) and centrifuged at 12,000× g for 15 min at 4 °C (Hettich® Universal 320 R, Tuttlingen, Germany). The supernatants were transferred to a 96-well plate and 8 μL was injected into the LC-MS/MS system (see Section 2.3).
(§3) All incubations were performed simultaneously with positive and negative controls. The positive controls were prepared by incubating dapaconazole at the same conditions as violacein (final concentrations: 2 μM) and its metabolic stability was compared with previous studies. Similarly, the negative controls were prepared by incubating violacein in buffer solution, in the absence of microsome and cofactor solutions.
(§4) Violacein was analyzed using LC-MS/MS (LC-QQQ MS, LCMS8045, Shimadzu, Kyoto, Japan). Chromatographic separation was achieved on a Raptor^TM Biphenyl column (2.1 × 100 mm, 2.7 μm) at 40 °C. The mobile phases consisted of water (mobile phase A) and methanol (mobile phase B), both containing 2 mM ammonium formate and 0.1% (v/v) formic acid. A flow rate of 0.3 mL/min was used with an elution gradient starting at 20% mobile phase B and holding for 0.2 min, followed by a linear increase to 95% mobile phase B over 2 min that was then maintained for 1 min, with a return to the initial condition in 0.2 min. The total chromatographic run time was 5 min.
(§5) In vitro t1/2 was calculated using to the following equation [60, 61]:(1) t1/2=ln(2)/k where k is the slope of the log-linear regression graph of the percentage of drug remaining as a function of time.
(§6) CLint, in vitro was calculated using to the following equation [60, 61]:(2) CLint, in vitro=0.693/t1/2×Vincubation/mmicrosomes where Vincubation indicates the volume of the incubation in μL and mmicrosomes indicates the mass of microsomal proteins added to the incubation solution in mg. […]

Candida albicans = test system: Candida albicans; design: method as in PMID 26428920; details: cited from earlier work
[2] = In vitro metabolic stability in mouse liver microsomes; format: in vitro ADME
Experimental: as §1, §2, §3, §4, §5, §6

Cryptococcus gastricus = test system: Cryptococcus gastricus; design: method as in PMID 26428920; details: cited from earlier work
Candida tropicalis = test system: Candida tropicalis; design: method as in PMID 26428920; details: cited from earlier work

## O=C1NC(c2c[nH]c3ccc(O)cc23)=C/C1=C1\C(=O)Nc2ccccc21 [violacein]
Caco-2 cells
  IC50: ~2000 nM
[1]; RLMs
  CLint, in vitro: 38.41 µL/min/mg
[1]; RLMs, time 0 min
  Ln Z: 4.605
  Z (%), remaining percentage of violacein: 100%
[1]; RLMs, time 3 min
  Ln Z: 4.495
  Z (%), remaining percentage of violacein: 90%
[1]; RLMs, time 5 min
  Ln Z: 4.101
  Z (%), remaining percentage of violacein: 60%
[1]; RLMs, time 15 min
  Ln Z: 3.832
  Z (%), remaining percentage of violacein: 46%
[1]; RLMs, time 30 min
  Ln Z: 3.371
  Z (%), remaining percentage of violacein: 29%
[1]; RLMs, time 60 min
  Ln Z: 2.549
  Z (%), remaining percentage of violacein: 13%
[1]; RLMs, time 120 min
  Ln Z: 1.899
  Z (%), remaining percentage of violacein: 7%
[1]; RLMs, ln remaining % vs incubation time
  Slope (k), metabolism rate constant: y = −0.0192x + 4.0344 r^2 = 0.9459 Slope (k) = 0.0192
[1]; male, rat, rat liver microsomes, pH 7.4, RLMs
  microsomal CLint at 2 µM: 38.4 µL/min/mg
[1]; male, rat, rat liver microsomes, pH 7.4, rat, extrapolated from CLint, in vitro by allometric scaling, read-out: CLint, in vivo
  CLint scaled at 2 µM: 93.7 mL/min/kg
[1]; male, rat, rat liver microsomes, pH 7.4, RLMs, 2 μM violacein, 1 mg/mL microsomal protein, NADPH-regenerating system, 37 °C, n = 3, read-out: In vitro elimination half-life (t1/2)
  half-life at 2 µM: 36 min
[1]; rat, extrapolated from CLint, in vitro by allometric scaling
  CLint, in vivo: 93.72 mL/min/kg
Candida albicans
  MIC: 8 µg/mL (≈ 23.3 µM)
[2]; MLMs
  CLint, in vitro: 17.01 µL/min/mg
[2]; MLMs, time 0 min
  Ln Z: 4.605
  Z (%), remaining percentage of violacein: 100%
[2]; MLMs, time 3 min
  Ln Z: 4.490
  Z (%), remaining percentage of violacein: 89%
[2]; MLMs, time 5 min
  Ln Z: 4.379
  Z (%), remaining percentage of violacein: 80%
[2]; MLMs, time 15 min
  Ln Z: 4.244
  Z (%), remaining percentage of violacein: 70%
[2]; MLMs, time 30 min
  Ln Z: 4.022
  Z (%), remaining percentage of violacein: 56%
[2]; MLMs, time 60 min
  Ln Z: 3.715
  Z (%), remaining percentage of violacein: 41%
[2]; MLMs, time 120 min
  Ln Z: 3.385
[2]; MLMs, ln remaining % vs incubation time
  Slope (k), metabolism rate constant: y = −0.0085x + 4.3405 r^2 = 0.9554 Slope (k) = 0.0085
[2]; male, C57BL, mouse, mouse liver microsomes, pH 7.4, MLMs
  microsomal CLint at 2 µM: 17 µL/min/mg
[2]; male, C57BL, mouse, mouse liver microsomes, pH 7.4, mouse, extrapolated from CLint, in vitro by allometric scaling, read-out: CLint, in vivo
  CLint scaled at 2 µM: 67 mL/min/kg
[2]; male, C57BL, mouse, mouse liver microsomes, pH 7.4, MLMs, 2 μM violacein, 1 mg/mL microsomal protein, NADPH-regenerating system, 37 °C, n = 3, read-out: In vitro elimination half-life (t1/2)
  half-life at 2 µM: 81 min
[2]; mouse, extrapolated from CLint, in vitro by allometric scaling
  CLint, in vivo: 66.99 mL/min/kg
Cryptococcus gastricus
  MIC: 32 µg/mL (≈ 93.2 µM)
Candida tropicalis
  MIC: 16 µg/mL (≈ 46.6 µM)
